# In US6028197A, “Dibenzo[a,g]quinolizinium derivatives and the salts thereof” (Hanwha Corporation, priority 1998, dated 2000):
# Read-outs that look alike come from different tables or passages of the source.
# Target: T1, sterol 14-reductase (Rattus norvegicus, UniProt A0ACM8Q6X4)
# T1 construct: microsome which was used as an enzyme source of sterol 14-reductase; from tissue; host or cells: liver microsomes of male Sprague-Dawley rats fed lovastatin and cholestyramine
# T1 sequence (A0ACM8Q6X4 1-418): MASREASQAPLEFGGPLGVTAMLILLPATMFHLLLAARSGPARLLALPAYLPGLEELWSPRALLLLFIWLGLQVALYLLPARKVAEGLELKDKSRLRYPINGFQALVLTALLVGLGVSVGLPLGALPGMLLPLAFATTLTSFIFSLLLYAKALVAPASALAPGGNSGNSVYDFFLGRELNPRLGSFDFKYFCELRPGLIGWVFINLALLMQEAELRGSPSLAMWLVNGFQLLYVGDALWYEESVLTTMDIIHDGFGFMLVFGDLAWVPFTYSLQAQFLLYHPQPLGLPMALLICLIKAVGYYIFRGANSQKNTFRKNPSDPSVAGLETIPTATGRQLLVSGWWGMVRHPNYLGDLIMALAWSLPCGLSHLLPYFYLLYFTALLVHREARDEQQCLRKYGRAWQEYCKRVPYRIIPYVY
# Experiment: Inhibition of sterol 14-reductase in rat liver microsomes
# Assay type: biochemical
# Details: read-out: Enzyme Activity (relative in vitro activity for sterol 14-reductase, IC50 class)
# Protocol: 20 Male Sprague-Dawley rats weighing from 150 to 250 g have been fed for 7 days with a diet containing 0.1% (w/w) Lovastatin and 5% (w/w) Cholestyramine. The animals were fasted for 12 hours before excising liver tissues and then sacrificed by decapitation at midnight. An aqueous solution containing 0.25M of sucrose was injected into the hepatic portal vein to remove all the blood within the liver, and then, the liver was excised. The liver was homogenated with two volumes of buffer solution A (0.1M potassium phosphate, 1 mM reduced glutathione, 0.5 mM EDTA, 20% (v/v) glycerol, pH 7.4) by repeating pestles over 10 times and then, centrifuged with 900×g for 5 minutes to give a supernatant. The supernatant was centrifuged with 12,000×g for 20 minutes. The supernatant obtained was ultracentrifuged with 105,000×g for 90 minutes to give a microsome which was used as an enzyme source of sterol 14-reductase. Assay for sterol 14-reductase was carried out as follows:
# 60 mmol of 4,4-dimethyl-5α-cholesta-7,14-dien-3β-ol and 5,6-dihydrodibenzo-[a,g]quinolizinium salts (compound no. 2) dissolved in DMSO were added to an assay mixture (total volume 1.0 ml) containing 2 mg of the microsomal protein, 2 mM of NADPH and 25 mg of glucose plus 20 units of glucose oxidase with preincubations under nitrogen at 37° C. for 4 min. unless otherwise specified to establish anaerobic condition. Buffer A (0.1M potassium phosphate buffer, pH 7.4, including 1 mM reduced glutathione, 0.5 mM EDTA, and 20% (v/v) glycerol) used for incubation had been equilibrated with nitrogen, and nitrogen was exchanged for air in all sealed reaction flasks prior to the start of incubations. Incubation of the complete mixture was carried out anaerobically in sealed flasks for 10 min at 37° C. unless otherwise indicated. Incubations were terminated by the addition of 1 ml of ethanolic KOH followed by heating under reflux for 10 min. Sterols were extracted four times with 4 ml of petroleum ether, and the solvent was evaporated to dryness under a nitrogen stream. The resulting residue was dissolved in 200-500 μl of n-hexane for quantification by GLC at high sensitive attenuation. The activity of sterol 14-reductase was determined with the amount of the substrate wherein the double bonds of 14-carbon were reduced (for the amount reduced by 1 mg of the microsome protein for 1 minute).
IC50,IC50 (microsomes),SMILES
> 100 µM,–,"CCc1c2[n+](cc3c(OCc4ccc(C)cc4C)c(OC)ccc13)CCc1cc(OC)c(OC)cc1-2 [Compound No. 28, 5,6-dihydro-2,3-dimethoxybenzo[a]-9-(2,4-dimethyl)benzyloxy-13-ethyl-10-methoxybenzo[g]quinolizinium chloride]"
10 to 100 µM,–,"CCc1c2[n+](cc3c(OCn4nnc5ccccc54)c(OC)ccc13)CCc1cc(OC)c(OC)cc1-2 [Compound No. 29, 5,6-dihydro-2,3-dimethoxybenzo[a]-9-(1H-benzo-triazol-1-yl)methoxy-13-ethyl-10-methoxybenzo[g]-quinolizinium chloride]"
> 100 µM,–,"CCc1c2[n+](cc3c(OCc4ccc(C(C)C)cc4)c(OC)ccc13)CCc1cc(OC)c(OC)cc1-2 [Compound No. 30, 5,6-dihydro-2,3-dimethoxybenzo[a]-13-ethyl-9-[4-(i-propyl)benzyloxy]-10-methoxybenzo[g]quinolizinium chloride]"
> 100 µM,–,"CCc1c2[n+](cc3c(OCc4ccc(C)cc4)c(OC)ccc13)CCc1cc(OC)c(OC)cc1-2 [Compound No. 31, 5,6-dihydro-2,3-dimethoxybenzo[a]-13-ethyl-10-methoxy-9-(4-methyl)benzyloxybenzo[g]quinolizinium chloride]"
> 100 µM,–,"CCc1c2[n+](cc3c(OCc4cccc(C)c4)c(OC)ccc13)CCc1cc(OC)c(OC)cc1-2 [Compound No. 32, 5,6-dihydro-2,3-dimethoxybenzo[a]-13-ethyl-10-methoxy-9-(3-methyl)benzyloxybenzo[g]quinolizinium chloride]"
–,> 100 µM,"CCc1c2[n+](cc3c(OCc4ccccc4C(F)(F)F)c(OC)ccc13)CCc1cc(OC)c(OC)cc1-2 [Compound No. 33, 5,6-dihydro-2,3-dimethoxybenzo[a]-13-ethyl-10-methoxy-9-(2-trifluoromethyl)benzyloxybenzo[g]quinolizinium chloride]"
10 to 100 µM,–,"CCc1c2[n+](cc3c(OCc4cccc(Br)c4)c(OC)ccc13)CCc1cc(OC)c(OC)cc1-2 [Compound No. 34, 5,6-dihydro-2,3-dimethoxybenzo[a]-9-(3-bromo)-benzyloxy-13-ethyl-10-methoxybenzo[g]quinolizinium chloride]"
> 100 µM,–,"CCc1c2[n+](cc3c(OCc4cc(OC)cc(OC)c4)c(OC)ccc13)CCc1cc(OC)c(OC)cc1-2 [Compound No. 35, 5,6-dihydro-2,3-dimethoxybenzo[a]-9-(3,5-dimethoxy)benzyloxy-13-ethyl-10-methoxybenzo[g]quinolizinium chloride]"
10 to 100 µM,–,"CCc1c2[n+](cc3c(OCc4ccc5ccccc5n4)c(OC)ccc13)CCc1cc(OC)c(OC)cc1-2 [Compound No. 36, 5,6-dihydro-2,3-dimethoxybenzo[a]-13-ethyl-10-methoxy-9-(quinolin-2-yl)methoxybenzo[g]quinolizinium chloride]"
> 100 µM,–,"CCc1c2[n+](cc3c(OCc4cc(OC)c(OC)c(OC)c4)c(OC)ccc13)CCc1cc(OC)c(OC)cc1-2 [Compound No. 37, 5,6-dihydro-2,3-dimethoxybenzo[a]-13-ethyl-10-methoxy-9-(3,4,5-trimethoxy)benzyloxybenzo[g]quinolizinium chloride]"
10 to 100 µM,–,"CCc1c2[n+](cc3c(OCc4ccc(CS(=O)(=O)c5ccccc5)cc4)c(OC)ccc13)CCc1cc(OC)c(OC)cc1-2 [Compound No. 38, 5,6-dihydro-2,3-dimethoxybenzo[a]-13-ethyl-10-methoxy-9-[4-(phenylsulfonylmethyl)benzyloxy]benzo[g]-quinolizinium chloride]"
10 to 100 µM,–,"CCc1c2[n+](cc3c(OCc4ccc([N+](=O)[O-])o4)c(OC)ccc13)CCc1cc(OC)c(OC)cc1-2 [Compound No. 39, 5,6-dihydro-2,3-dimethoxybenzo[a]-13-ethyl-10-methoxy-9-(5-nitrofuran-2-yl)methoxybenzo[g]quinolizinium chloride]"
